Results on twelve compounds are retold here after patent publication US7745422B2, “Bisphosphonate compounds and methods for bone resorption diseases, cancer, bone pain, immune disorders, and infectious diseases” (The Board of Trustees of the University of Illinois, priority 2004, dated 2010).

One experiment deals with T1, human FPPS (Homo sapiens, UniProt P14324).
T1 sequence (P14324 1-419): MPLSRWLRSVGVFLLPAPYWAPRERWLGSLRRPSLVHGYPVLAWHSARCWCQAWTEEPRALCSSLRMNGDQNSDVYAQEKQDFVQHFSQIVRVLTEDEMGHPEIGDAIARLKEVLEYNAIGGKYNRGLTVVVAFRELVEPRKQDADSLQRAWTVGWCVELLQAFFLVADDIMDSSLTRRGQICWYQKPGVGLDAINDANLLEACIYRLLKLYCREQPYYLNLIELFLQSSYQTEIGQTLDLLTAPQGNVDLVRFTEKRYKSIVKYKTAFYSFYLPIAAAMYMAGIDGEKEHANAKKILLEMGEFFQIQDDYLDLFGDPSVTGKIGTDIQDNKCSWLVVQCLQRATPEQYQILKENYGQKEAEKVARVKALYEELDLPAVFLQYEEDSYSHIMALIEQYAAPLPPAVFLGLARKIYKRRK
The experiment is described as follows: human FPPS assay. It counts as biochemical.

Another experiment relates to Dictyostelium discoideum. The experiment is described as follows: D. discoideum cell growth inhibition. In kind it is cell-based. From the text:
(§1) We then investigated the activity of each compound in inhibiting the FPPS from L. major, in Dictyostelium discoideum growth inhibition and in γδ T cell activation. We used the FPPS from L. major since this enzyme is the putative bisphosphonate target in several trypanosomatid species.

In the next experiment the test system is Vγ2Vδ2 T cells. Put plainly: gammadelta T cell stimulation (TNF-α release assay). It counts as cell-based, human.
Description: as §1

For another experiment, the system named is fetal mouse metatarsals. The experiment is described as follows: bone resorption assay: 45Ca2+ release from 17-day old fetal mouse metatarsals. It counts as cell-based. The conditions noted are these: for IC50: Table 4. Here is the method:
Compounds are tested in a bone resorption assay: ^45Ca^2+ release from 17-day old fetal mouse metatarsals (ref. 37).

For a further experiment, the target named is T2, L. major FPPS (Leishmania major, UniProt Q4QBL1).
T2 sequence (Q4QBL1 1-362): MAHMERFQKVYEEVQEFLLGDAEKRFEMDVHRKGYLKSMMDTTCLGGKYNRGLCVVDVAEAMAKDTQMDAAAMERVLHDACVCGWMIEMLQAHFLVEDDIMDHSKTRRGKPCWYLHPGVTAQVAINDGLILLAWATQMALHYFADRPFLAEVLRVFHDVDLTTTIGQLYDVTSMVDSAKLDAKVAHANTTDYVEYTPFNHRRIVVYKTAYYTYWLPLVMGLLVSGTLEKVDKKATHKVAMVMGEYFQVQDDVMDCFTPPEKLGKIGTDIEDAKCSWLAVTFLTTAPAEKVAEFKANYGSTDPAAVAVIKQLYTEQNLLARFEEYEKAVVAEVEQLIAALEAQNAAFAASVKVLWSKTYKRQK
Put plainly: biochemical. It counts as biochemical.
Description: as §1

The test system of experiment [1] is human nasopharyngeal carcinoma cells. Put plainly: Toxicity testing in human nasopharyngeal carcinoma cells. It counts as cell-based. Here is the method:
We have obtained data for selected bisphosphonate compounds in the contexts of D. discoideum assays, human FPPS assays, gammadelta T cell stimulation assays, and bone resorption assays. […] Some toxicity testing was also performed. See Table 4 (in some instances, the same data depicted elsewhere herein, e.g., in Table 1, may be presented again to facilitate comparative analysis).

Experiment [2] addresses T. brucei soluble vacuolar pyrophosphatase. Put plainly: T. brucei soluble vacuolar pyrophosphatase inhibition. In kind it is biochemical, Trypanosoma brucei. The conditions noted are these: Table 5; read-out: (9) T. brucei soluble vacuolar pyrophosphatase IC50. From the text: We have obtained data for selected bisphosphonate compounds against parasites including Trypanosoma brucei, Trypanosoma cruzi, and Leishmania major. […] See Table 5 (in some instances, the same data depicted elsewhere herein, e.g., in Table 1, may be presented again to facilitate comparative analysis).

The mark [3] stands for this setting: Table 4, read-out: (2) human FPPS IC50.
Where [4] appears, read: Table 4, read-out: (1) D. discoideum IC50.
The mark [5] stands for this setting: TNF-α release, Table 1 and text, read-out: gammadelta T cell stimulation, EC50.
The mark [6] stands for this setting: Table 3, additional testing, read-out: gammadelta T cell stimulation EC50.
[7] abbreviates: cell growth inhibition, Table 1 and text, read-out: D. discoideum IC50.
Where [8] appears, read: Table 1 and text, read-out: L. major FPPS Ki.
Setting [9] is: Homo sapiens, T-cell, read-out: (3) gammadelta T cell stimulation EC50.
Where [10] appears, read: Homo sapiens, T-cell, read-out: gammadelta T cell stimulation EC50.
[11] abbreviates: Dictyostelium discoideum, read-out: (1) D. discoideum IC50.
Setting [12] is: Table 4, read-out: (3) gammadelta T cell stimulation EC50.
The mark [13] stands for this setting: Table 5, read-out: (7) L. major FPPS Ki.

In brackets after ≈: the same amount, converted by molar mass. Read-outs that look alike come from different tables or passages of the source.

For the compound `CC([n+]1ccccc1)C(O)(P(=O)([O-])O)P(=O)(O)O` (single isomer, unassigned) [Compound 591], the IC50 came out at 29 µM on human FPPS (setting [3]) and 38 µM with Dictyostelium discoideum (setting [4]).
As to `Cc1ccc[n+](CC(O)(P(=O)([O-])O)P(=O)(O)O)c1` (stereo not shown) [Compound 297], the EC50 with Vγ2Vδ2 T cells (setting [5]) was 4.6 µM; in the experiment on Vγ2Vδ2 T cells (setting [6]) it was 4.9 µM. Further, the values for the IC50 in the experiment with Dictyostelium discoideum (setting [4]), in the experiment with Dictyostelium discoideum (setting [7]) and with fetal mouse metatarsals were 2.8 µM, 1.5 µM and 0.22 µM, respectively. Also, the Ki at L. major FPPS (setting [8]) was found to be 0.038 µM. For the same compound, the “(5) Toxicity IC50” value in experiment [1] worked out at 5.3 µg/mL.
With `O=P([O-])(O)C(O)(C[n+]1cccc(-c2ccccc2)c1)P(=O)(O)O` (stereo not shown) [Compound 300], the EC50 in the experiment on Vγ2Vδ2 T cells (setting [9]) was found to be 3.7 µM; in the experiment with Vγ2Vδ2 T cells (setting [10]) it was 2.1 µM; with Vγ2Vδ2 T cells (Homo sapiens, T-cell, read-out: gammadelta T cell stimulation, EC50) it was 3.7 µM. The IC50 was determined as 1.7 µM against human FPPS; 2.8 µM in the experiment on Dictyostelium discoideum (setting [11]); 2.8 µM in the experiment with Dictyostelium discoideum (Dictyostelium discoideum, read-out: D. discoideum IC50); 35 µM in experiment [2]; 0.41 µM in the experiment with fetal mouse metatarsals (Mus musculus); 5.4 µg/mL (≈ 15 µM) in experiment [1] (read-out: (5) Toxicity IC50).
Regarding `O=P([O-])(O)C(O)(C[n+]1cccc(Cc2ccccc2)c1)P(=O)(O)O` (stereo not shown) [Compound 335], the “activity in gammadelta T cell stimulation” value in the experiment with Vγ2Vδ2 T cells (TNF-α release) is given as “poor activity”. In addition, the figures for the EC50 with Vγ2Vδ2 T cells (setting [5]), with Vγ2Vδ2 T cells (setting [6]) and with Vγ2Vδ2 T cells (setting [12]) were 430 µM, 63.4 µM and 430 µM, respectively. Also, the IC50 in the experiment with Dictyostelium discoideum (setting [4]) turned out to be 11 µM; with Dictyostelium discoideum (setting [7]), 8.5 µM; in experiment [2], 70 µM. For the same compound, the Ki at L. major FPPS (setting [8]) and at L. major FPPS (setting [13]) was 0.16 µM in each case.
Regarding `Cc1cccc(Cc2ccc[n+](CC(O)(P(=O)([O-])O)P(=O)(O)O)c2)c1` (stereo not shown) [Compound 344], in the experiment with Vγ2Vδ2 T cells (TNF-α release), the “activity in gammadelta T cell stimulation” value is reported as “poor activity”. Also, the EC50 with Vγ2Vδ2 T cells (setting [5]) and in the experiment with Vγ2Vδ2 T cells (setting [12]) was 140 µM each time. The IC50 at human FPPS (setting [3]) is 17 µM; in the experiment on Dictyostelium discoideum (setting [4]), 8.5 µM; in the experiment on Dictyostelium discoideum (setting [7]) it was 9.9 µM; in experiment [2], 78 µM. Further, the Ki on L. major FPPS (setting [8]) and at L. major FPPS (setting [13]) was 0.07 µM throughout.
Turning to `O=P([O-])(O)C(O)(C[n+]1cccc(-c2ccc(O)cc2)c1)P(=O)(O)O` (stereo not shown) [Compound 359], the EC50 in the experiment on Vγ2Vδ2 T cells (setting [5]) and with Vγ2Vδ2 T cells (setting [12]) was 24 µM throughout. Moreover, the IC50 in the experiment with Dictyostelium discoideum (setting [4]) and with Dictyostelium discoideum (setting [7]) was 2.9 µM in each case. Besides, the Ki at L. major FPPS (setting [8]) amounted to 0.075 µM.
Consider `O=P([O-])(O)C(O)(C[n+]1cccc(-c2cccc(-c3ccccc3)c2)c1)P(=O)(O)O` (stereo not shown) [Compound 364], for which the EC50 in the experiment on Vγ2Vδ2 T cells (setting [5]) and in the experiment on Vγ2Vδ2 T cells (setting [12]) was more than 1000 µM each time. Further, the IC50 at human FPPS (setting [3]) was 37 µM.
In the case of `CCCCc1ccc[n+](CC(O)(P(=O)([O-])O)P(=O)(O)O)c1` (stereo not shown) [Compound 445], the EC50 with Vγ2Vδ2 T cells (setting [5]) amounted to 5.2 µM; with Vγ2Vδ2 T cells (setting [6]), 2.5 µM; in the experiment with Vγ2Vδ2 T cells (setting [12]), 5.2 µM. Besides, the results for the IC50 with Dictyostelium discoideum (setting [4]) and with Dictyostelium discoideum (setting [7]) were 3 µM and 2.9 µM, respectively. For the same compound, on L. major FPPS (setting [8]), the Ki was determined as 0.02 µM.
On to `COc1ccc[n+](CC(O)(P(=O)([O-])O)P(=O)(O)O)c1` (stereo not shown) [Compound 446], for which the EC50 in the experiment with Vγ2Vδ2 T cells (setting [5]) stood at 4.6 µM. The IC50 in the experiment with Dictyostelium discoideum (setting [4]) was determined as 6 µM; with Dictyostelium discoideum (setting [7]), 6 µM; with fetal mouse metatarsals, 0.37 µM. Moreover, the Ki at L. major FPPS (setting [8]) was 0.03 µM.
In the case of `CN(C)c1cc[n+](CC(O)(P(=O)([O-])O)P(=O)(O)O)cc1` (stereo not shown) [Compound 451], the “(3) gammadelta T cell stimulation EC50” value in the experiment on Vγ2Vδ2 T cells (Table 4) is “inactive”. In addition, the IC50 at human FPPS (setting [3]) is 280 µM; in the experiment on Dictyostelium discoideum (setting [4]) it was 31 µM.
`O=P([O-])(O)C(O)(C[n+]1cccc(F)c1)P(=O)(O)O` (stereo not shown) [Compound 461]: the EC50 with Vγ2Vδ2 T cells (setting [9]) and in the experiment on Vγ2Vδ2 T cells (setting [10]) was 2.7 µM in each case. For the same compound, the results for the IC50 in the experiment with Dictyostelium discoideum (setting [11]) and with fetal mouse metatarsals (Mus musculus) were 3.7 µM and 0.075 µM, respectively. The “potency in bone resorption” value in the experiment on fetal mouse metatarsals is “very potent”. For the same compound, the Ki at L. major FPPS (setting [13]) amounted to 0.05 µM.
Regarding `O=P([O-])(O)C(C[n+]1cccc(F)c1)P(=O)(O)O` (stereo not shown) [Compound 477], in the experiment on Vγ2Vδ2 T cells (setting [6]), the EC50 was 1.8 µM. The IC50 on human FPPS (setting [3]) turned out to be 1.4 µM; in the experiment with Dictyostelium discoideum (setting [4]) it was 2.7 µM.

The IC50 is the concentration at which inhibition is half-maximal. As a reminder, the Ki is a measure of affinity in units of concentration, obtained from inhibition or displacement.
